In publication PMC7076710, “Synthesis, Identification, and Structure–Activity Relationship Analysis of GATA4 and NKX2-5 Protein–Protein Interaction Modulators” (Journal of Medicinal Chemistry, 2019):
Values belong to the molecule of their own block, whether it stands above or below them.

Biological target: T1, GATA4–NKX2-5 transcriptional synergy (Mus musculus, UniProt P42582+Q08369)
T1 construct: expressed in transfected cells; host or cells: COS-1
Assay: GATA4–NKX2-5 transcriptional synergy luciferase reporter assay (3xNKE reporter, COS-1 cells)
Assay type: cell-based
Protocol: To screen compounds for the GATA4–NKX2-5 interaction, we have developed a luciferase reporter assay based on their property to activate gene transcription synergistically through the NKX2-5 binding site on DNA.[28] In this assay, we transfected mammalian COS-1 cells with protein expression vectors for GATA4 and NKX2-5 proteins together with artificial luciferase reporter vector containing three high affinity binding sites for NKX2-5 (NKE). […] All 257 compounds were tested in two concentrations, 3 and 10 μM. Compounds either inhibited, enhanced, or had no effect on the GATA4–NKX2-5 transcriptional synergy. To investigate the selectivity of the active compounds, we tested their effects on NKX2-5 transcriptional activity by using the same luciferase reporter vector as in transcriptional synergy assay with three NKE sites (Figure 3B). Furthermore, we used GATA luciferase reporter assay to examine if compounds have an effect on GATA4 transcriptional activity. In this assay, we cotransfected the cells with a GATA4 protein expression vector and a reporter vector with tandem GATA4 binding sites (Figure 3C). Previously we have reported that compound 1 inhibited the GATA4–NKX2-5 transcriptional synergy at micromolar concentrations (IC50 = 3 μM).[29]
The plasmids expressing mouse GATA4 protein, pMT2-GATA4, and empty pMT2 were gifts from D. B. Wilson (Department of Pediatrics, St. Louis Children’s Hospital, St. Louis, MO).[44] The plasmids expressing mouse NKX2-5 protein, pMT2-NKX2-5, have been described earlier.[28] The luciferase reporter plasmid used in GATA4–NKX2-5 transcriptional synergy assay and NKX transcriptional assay, pGL3-3xHA, contains three high affinity binding sites for NKX2-5.[28] The luciferase reporter plasmid used in GATA transcriptional assay, NP-112, contains tandem GATA-sites and minimal promoter of rat brain natriuretic peptide (BNP) gene.[45] The pGL3-BNP luciferase reporter containing −534/+4 bp rat BNP proximal promoter described previously was used in hypertrophy assay.[46]
The primary screening assay of compounds’ effect on GATA4–NKX2-5 transcriptional synergy and COS-1 cell culturing has been described earlier.[33] […] (Kinnunen et al., unpublished observation). Briefly, COS-1 cells were seeded at 14 000 cells/well in Isoplate-96 microplates (PerkinElmer, Turku, Finland) and grown overnight. The cells were transfected with the luciferase reporter plasmid pGL3-3xHA 100 ng/well and equal amounts of expression plasmids pMT2-GATA4 and pMT2-NKX2-5 total 50 ng/well. To verify the synergistic effect, the cells were transfected with pMT2-GATA4 or pMT2-NKX2-5 25 ng/well, and the total DNA concentration was adjusted to 50 ng/well with empty pMT2 plasmid. In NKX2-5 and GATA4 luciferase reporter assays, the cells were transfected with reporter plasmid pGL3-3xHA or NP-112 (100 ng/well) and expression plasmid pMT2-NKX2-5 or pMT2-GATA4 (25 ng/well). The ratio of DNA/transfection reagent (Fugene 6, Promega) was 1:3 in all assays. The transfections were performed in serum and antibiotics free media for 6 h. The cells were treated with compounds or vehicle (0.1% DMSO) for 24 h, and the luminescence was measured using neolite Reporter Gene Assay System (PerkinElmer, Turku, Finland) and Victor2 plate reader (PerkinElmer, Turku, Finland).
Raw luciferase data were analyzed in Excel, and clear outliers were removed from triplicates by using the Grubb’s test. Data analysis was performed using R.[49] The luciferase data were first normalized on the basis of the combined mean value of controls. For data visualization and creation of figures, the following R packages were used: ggplot2, cowplot, RColorBrewer, and pheatmap. The heatmaps of the toxicity data were produced with GraphPad Prism 7.00 (GraphPad Software, La Jolla, CA). Statistical significance of luciferase reporter assay data was evaluated by randomized block analysis of variance followed by Dunnett’s post hoc test. […]

[1] = COS-1, compound 3 µM, luciferase reporter activity relative to control
[2] = COS-1, 3 µM, luciferase reporter activity, % of control
[3] = COS-1, compound 3 µM, luciferase reporter activity, spread in separate STDEV column
[4] = COS-1, compound 10 µM, luciferase reporter activity, spread in separate STDEV column
[5] = COS-1, compound 10 µM, luciferase reporter activity relative to control
[6] = COS-1, GATA4-NKX2-5 transcriptional synergy luciferase reporter assay, compound at 3 µM
[7] = COS-1, GATA4-NKX2-5 transcriptional synergy luciferase reporter assay, compound at 10 µM
[8] = COS-1, compound at 3 µM, luciferase reporter activity, % of control
[9] = COS-1, compound at 10 µM, luciferase reporter activity, % of control
[10] = 3 µM compound, GATA4–NKX2-5 transcriptional synergy reporter, COS-1 cells
[11] = 10 µM compound, GATA4–NKX2-5 transcriptional synergy reporter, COS-1 cells
[12] = COS-1, 10 µM, luciferase reporter activity, % of control

T1 sequence (Q08369 whole entry): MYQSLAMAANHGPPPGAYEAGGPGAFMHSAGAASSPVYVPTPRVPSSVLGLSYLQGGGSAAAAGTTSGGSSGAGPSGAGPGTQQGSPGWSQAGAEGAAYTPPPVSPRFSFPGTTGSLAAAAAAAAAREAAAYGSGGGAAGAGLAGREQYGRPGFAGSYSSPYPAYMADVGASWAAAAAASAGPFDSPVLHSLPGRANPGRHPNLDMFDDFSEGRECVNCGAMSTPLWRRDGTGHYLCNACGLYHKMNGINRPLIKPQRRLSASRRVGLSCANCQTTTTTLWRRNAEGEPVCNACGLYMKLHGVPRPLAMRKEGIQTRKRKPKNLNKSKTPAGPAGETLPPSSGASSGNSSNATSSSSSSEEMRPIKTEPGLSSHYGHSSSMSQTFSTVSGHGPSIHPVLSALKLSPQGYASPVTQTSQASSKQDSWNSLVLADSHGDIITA
T1 sequence (P42582 whole entry): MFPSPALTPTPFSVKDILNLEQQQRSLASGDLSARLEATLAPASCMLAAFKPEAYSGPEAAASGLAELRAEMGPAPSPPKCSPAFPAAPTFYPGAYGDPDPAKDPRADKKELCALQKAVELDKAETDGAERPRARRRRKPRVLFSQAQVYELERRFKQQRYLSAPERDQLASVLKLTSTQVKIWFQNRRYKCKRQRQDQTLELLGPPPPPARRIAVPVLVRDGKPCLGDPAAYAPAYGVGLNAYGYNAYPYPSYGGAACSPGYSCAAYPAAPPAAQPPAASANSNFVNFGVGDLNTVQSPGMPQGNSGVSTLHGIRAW

SMILES: CCN(CC)c1ccc(CN(C(=O)Nc2ccc(C#N)cc2)c2c(-c3ccccc3)noc2C)cc1 [Compound 30d]
activity at 3 µM [1]: 90%

SMILES: Cc1onc(-c2ccccc2)c1C(=O)Nc1ccc(OCCN2CCOCC2)cc1 [Compound 4h]
activity at 3 µM [2]: 89.8%

SMILES: CCN(CC)c1ccc(N(Cc2ccccc2)C(=O)c2c(-c3ccccc3)noc2C)cc1 [Compound 25c]
activity at 3 µM [2]: 80.2%

SMILES: CCC(=O)c1ccc(OCc2c(C)noc2-c2ccccc2)cc1 [SI47]
activity at 3 µM [1]: 89.3% | activity at 10 µM [5]: 95.3%

SMILES: CCN(CC)c1ccc(/N=C(\SCCF)c2c(-c3ccccc3)noc2C)cc1 [Compound 24b]
activity at 3 µM [8]: 122% | activity at 10 µM [9]: 108%

SMILES: CCN(CC)c1ccc(NC(=O)c2nn(-c3ccccc3)nc2C)cc1 [Compound 47b]
activity at 3 µM [2]: 97.7% | activity at 10 µM [12]: 101%

SMILES: Cc1onc(-c2ccccc2)c1CNc1ccc2oc(-c3ccccc3)cc(=O)c2c1 [SI40]
activity at 3 µM [10]: 94.8% | activity at 10 µM [11]: 99.6%

SMILES: Cc1onc(-c2ccccc2)c1COc1ccc([N+](=O)[O-])cc1 [Compound 21b]
activity at 3 µM [2]: 94%

SMILES: CCC(C)NC(=O)c1cc(-c2ccco2)on1 (centres unmarked) [Compound 69]
activity at 3 µM [3]: 127% | activity at 10 µM [4]: 138%

SMILES: CCN(CC)c1ccc(NC(=O)c2ccnc(C(F)(F)F)c2)cc1 [Compound 47ac]
activity at 3 µM [10]: 88.3%

SMILES: Cc1onc(-c2ccccc2)c1C(=O)N1CCc2cc([N+](=O)[O-])ccc21 [SI16]
activity at 3 µM [2]: 99.5% | activity at 10 µM [12]: 91.3%

SMILES: CCN(CC)c1ccc(NC(=O)c2c(-c3c(Cl)ccc([N+](=O)[O-])c3Cl)noc2C)cc1 [Compound 39f, 3-(2,6-Dichloro-3-nitrophenyl)-N-[4-(diethylamino)phenyl]-5-methylisoxazole-4-carboxamide]
activity at 3 µM [8]: 76.3%

SMILES: CCN(CC)c1ccc(N(Cc2c(-c3ccccc3)noc2C)C(C)=O)cc1 [Compound 16, N-[4-(Diethylamino)phenyl]-N-[(5-methyl-3-phenylisoxazol-4-yl)methyl]acetamide]
activity at 3 µM [10]: 93.1%

SMILES: CCN(CC)c1ccc(NC(=S)c2c(-c3c(Cl)cccc3Cl)noc2C)cc1 [SI53]
activity at 3 µM [8]: 81.2% | activity at 10 µM [9]: 70.1%

SMILES: CCN(CC)c1ccc(CN(C)c2c(-c3ccccc3)noc2C)cc1 [Compound 30a, N-[4-(Diethylamino)benzyl]-N,5-dimethyl-3-phenylisoxazol-4-amine]
activity at 3 µM [1]: 103%

SMILES: CCN(CC)c1ccc(NC(=O)c2ccsc2)cc1 [Compound 55]
activity at 10 µM [12]: 108%

SMILES: CCN(CC)c1ccc(NC(=O)c2c(-c3cc(Br)cs3)noc2C)cc1 [Compound 39l]
activity at 3 µM [3]: 91%

SMILES: Cc1cc(NC(=O)c2c(-c3ccccc3)noc2C)ccc1C(C)C [Compound 4e]
activity at 3 µM [2]: 95.2%

SMILES: CCN(CC)c1ccc(NC(=O)c2c(-c3ccccc3)nnn2C)cc1 [Compound 47o]
activity at 3 µM [1]: 113%

SMILES: CCN(CC)c1ccc(NC(=S)c2c(-c3ccccc3)noc2C)cc1 [Compound 23, N-[4-(Diethylamino)phenyl]-5-methyl-3-phenylisoxazole-4-carbothioamide]
activity at 3 µM [8]: 90.6%

SMILES: CCN(CC)c1ccc(NS(=O)(=O)c2c(C)noc2C)cc1 [SI19]
activity at 3 µM [2]: 91.6% | activity at 10 µM [12]: 79.1%

SMILES: Cc1onc(-c2ccccc2Cl)c1C(=O)Nc1ccc2oc(-c3ccccc3)cc(=O)c2c1 [SI51]
activity at 3 µM [10]: 96.2% | activity at 10 µM [11]: 75.2%

SMILES: Cc1onc(-c2ccccc2)c1NC(=O)CCCCCBr [SI31]
activity at 3 µM [2]: 66.7% | activity at 10 µM [12]: 78.2%

SMILES: Cc1onc(-c2ccccc2)c1C(=O)Nc1ccc(C(=O)Nc2ccccc2)cc1 [SI11]
activity at 3 µM [8]: 80.1% | activity at 10 µM [9]: 98.5%

SMILES: CCN(CC)c1ccc(N(C)C(=S)c2c(-c3ccccc3)noc2C)cc1 [Compound 26]
activity at 3 µM [1]: 92.9%

SMILES: CCN(CC)c1ccc(/C=N/c2c(-c3ccccc3)noc2C)cc1 [Compound 31, (E)-N-[4-(Diethylamino)benzylidene]-5-methyl-3-phenylisoxazol-4-amine]
activity at 3 µM [1]: 94.1%

SMILES: CCN(CC)c1ccc(NC(=O)c2nnn(C)c2-c2ccccc2)cc1 [Compound 47p]
activity at 3 µM [1]: 86.8%

SMILES: Cc1onc(-c2cccc([N+](=O)[O-])c2)c1C(=O)Nc1ccc(N(C)C)cc1 [Compound 40]
activity at 3 µM [8]: 95% | activity at 10 µM [9]: 101%

More lines, now with the values ahead:

activity at 3 µM [3]: 122% | activity at 10 µM [4]: 121%
SMILES: Cc1cc(-c2onc(C)c2C(=O)N(C)c2ccc3oc(-c4ccccc4)cc(=O)c3c2)no1 [SI77]

activity at 3 µM [1]: 103% | activity at 10 µM [5]: 106%
SMILES: COC(=O)c1c(-c2ccccc2)nnn1CCc1ccccc1 [SI111]

activity at 3 µM [6]: 85.4% | activity at 10 µM [7]: 61.6%
SMILES: CCN(CC)c1ccc(NC(=O)c2c(-c3ccccc3)noc2C)c(C)c1 [SI132]

activity at 3 µM [8]: 87.1% | activity at 10 µM [9]: 89.9%
SMILES: Cc1onc(-c2ccccc2)c1NCc1ccc(N(C)C)cc1 [SI109]

activity at 3 µM [3]: 92% | activity at 10 µM [4]: 91.9%
SMILES: COc1ccc(NC(=O)c2c(-c3ccc(Br)s3)noc2C)cc1Cl [SI115]

activity at 3 µM [10]: 103% | activity at 10 µM [11]: 91.3%
SMILES: O=C(Nc1ccc2oc(-c3ccccc3)cc(=O)c2c1)c1ncoc1-c1ccccc1 [SI102]

activity at 3 µM [10]: 96.2% | activity at 10 µM [11]: 110%
SMILES: CSc1nsc(SC)c1C(=O)Nc1ccc2oc(-c3ccccc3)cc(=O)c2c1 [SI103]

activity at 3 µM [1]: 70.3% | activity at 10 µM [5]: 44.1%
SMILES: Cc1noc(-c2ccccc2)c1C(=O)Nc1ccc2oc(-c3ccccc3)cc(=O)c2c1 [SI105]

activity at 3 µM [6]: 100% | activity at 10 µM [7]: 101%
SMILES: CCOC(=O)c1cc(NC(=O)c2cc(-c3ccccc3)no2)c[nH]1 [SI126]

activity at 3 µM [1]: 91.3% | activity at 10 µM [5]: 84.8%
SMILES: CCN(CC)c1ccc(CNCc2c[nH]nc2-c2ccccc2)cc1 [SI84]

activity at 3 µM [8]: 103% | activity at 10 µM [9]: 87.6%
SMILES: Fc1ccc(-c2n[nH]cc2C=Nc2ccc(N3CCOCC3)cc2)cc1 [SI82]

activity at 3 µM [6]: 91.8% | activity at 10 µM [7]: 102%
SMILES: O=C(Nc1ccc2c(c1)OC(F)(F)O2)c1cc(-c2ccco2)on1 [SI122]

activity at 3 µM [6]: 94.3% | activity at 10 µM [7]: 115%
SMILES: CN(C)c1c(F)cc(NC(=O)c2cc(-c3ccco3)on2)cc1F [SI129]

activity at 3 µM [6]: 88.6% | activity at 10 µM [7]: 86.3%
SMILES: Cc1ccc(NC(=O)c2c(-c3cc(C)on3)noc2C)cc1 [SI133]

activity at 3 µM [10]: 99% | activity at 10 µM [11]: 103%
SMILES: CCN(CC)c1ccc(NCc2c[nH]nc2-c2cccs2)cc1 [SI83]

activity at 3 µM [8]: 109% | activity at 10 µM [9]: 100%
SMILES: COc1ccc(NC(=O)c2cnoc2-c2ccccc2)cc1 [SI70]

activity at 3 µM [1]: 97.6% | activity at 10 µM [5]: 78.6%
SMILES: CCCCOC(=O)c1ccc(N=Nc2c(-c3ccc(OC)cc3)n[nH]c2N)cc1 [SI96]

activity at 3 µM [8]: 94.1% | activity at 10 µM [9]: 95.8%
SMILES: CCN(CC)c1ccc(C(=O)Nc2c(C(N)=O)oc3ccccc23)cc1 [SI106]

activity at 3 µM [6]: 101% | activity at 10 µM [7]: 90.6%
SMILES: O=C1COc2ccc(NC(=O)c3cc(-c4ccccc4)[nH]n3)cc2N1 [SI121]

activity at 3 µM [10]: 100% | activity at 10 µM [11]: 117%
SMILES: COC(=O)c1ccc(N(C)C(=O)c2c(-c3ccccc3)noc2C)cc1 [SI110]
